Reference: patent US20040231558A1, “Water-color ink” (priority 2001, published 2004)

Legend:
[1] = Evaluation of light fastness-2 (OD value of printed portion after 400 hours xenon fadeometer); type: physicochemical; conditions: for (A)-2 light fastness-2: ink prepared as in Example 1 from the salt named in the row, OD value of printed portion after 400 hours xenon fadeometer
Procedure: (§1) The prepared ink was filled in an ink cartridge for a piezo-type ink-jet printer EM-930C (manufactured by Seiko Epson). The printing was performed with this printer, and the light fastness was evaluated. Further, the storage stability of the ink was evaluated.
(A)-2 Evaluation of Light Fastness-2
Printing density (OD value) was measured after irradiating a printed-portion with light for 400 hours using axenon fadeometer (manufactured by Suga Shikenki), and the light fastness was evaluated.

[2] = Evaluation of storage stability of ink (40° C. for 3 months, insoluble matter and clogging); type: physicochemical; conditions: recording liquid stored at 40° C. for 3 months; for (C) storage stability: insoluble matter and clogging
Procedure: as §1
(C) Evaluation of Storage Stability of Ink:
After a recording liquid was stored at 40° C. for 3 months, it was observedwhether or not an insoluble matterwas precipitated, and whether or not clogging occurred after continuous recording with the foregoing printer for a long period of time.

[3] = Solubility in water of the salt
[4] = Evaluation of light fastness-1 (OD value of printed portion after 100 hours xenon fadeometer); type: physicochemical; conditions: ink prepared as in Example 1 from the salt named in the row; OD value of printed portion after 100 hours xenon fadeometer
Procedure: as §1
(A)-1 Evaluation of Light Fastness-1
Printing density (OD value) was measured after irradiating a printed portion with light for 100 hours using a xenon fadeometer (manufactured by Suga Shikenki) to evaluate the light fastness.

[5] = Evaluation of moisture resistance (image-recorded paper at 40° C. and humidity 85%, visual observation); type: physicochemical; conditions: for (B) moisture resistance: image-recorded paper at 40° C. and humidity 85%, visually observed

| Compound | (A)-2 light fastness-2 [1] | (C) storage stability [2] | Solubility in water ([3]; salt type M1 to M4) | (A)-1 light fastness-1 [4] | Solubility in water ([3]; % by weight) | (B) moisture resistance [5] | Evaluation of light fastness-2 ([1]; ink with 3% dye printed with ink-jet printer EM-930C, 400 hours xenon fadeometer, OD value vs before irradiation) | Evaluation of ink storage stability ([2]; precipitation and clogging) | Evaluation of moisture resistance ([5]; image-recorded paper at 40° C., humidity 85%, visual observation) |
| --- | --- | --- | --- | --- | --- | --- | --- | --- | --- |
| Cc1c(N=Nc2cc(S(=O)(=O)O)ccc2C(=O)O)c(O)n(CCC(=O)O)c(=O)c1C#N [compound 218] | ⊚ | ◯ | >5% | ⊚ | – | – | – | – | – |
| Cc1c(N=Nc2cc(C(=O)[O-])ccc2C(=O)[O-])c(O)n(CCNc2nc(Cl)nc(NCCn3c(O)c(N=Nc4cc(C(=O)[O-])ccc4C(=O)[O-])c(C)c(C#N)c3=O)n2)c(=O)c1C#N.[K+].[K+].[K+].[K+] [potassium salt of compound No. 245] | ∘ | ∘ | – | ⊚ | ≥ 3% | ⊚ | – | – | – |
| Cc1c(N=Nc2cccc(C(=O)O)c2C(=O)O)c(O)n(C(=O)O)c(=O)c1C#N [compound 46] | Δ | Δ | >5% | ⊚ | – | ◯ | – | – | – |
| Cc1c(N=Nc2cc(C(=O)O)ccc2C(=O)O)c(O)[nH]c(=O)c1C#N [Compound No. 11] | ⊚ | ◯ | >3% | ⊚ | – | ◯ | – | – | – |
| CNC(=O)c1cc(C(=O)O)c(N=Nc2c(O)[nH]c(=O)c(C#N)c2C)cc1C(=O)O [compound 14] | ⊚ | ◯ | >3% | ⊚ | – | ◯ | – | – | – |
| Cc1c(N=Nc2c(C(=O)O)cccc2C(=O)O)c(O)n(C(O)CO)c(=O)c1C#N (stereo not shown) [compound 43] | ⊚ | ◯ | >5% | ⊚ | – | Δ | – | – | – |
| Cc1c(N=Nc2cccc(C(=O)O)c2C(=O)O)c(O)n(CS(=O)(=O)O)c(=O)c1C#N [compound 105] | ◯ | ◯ | >5% | ⊚ | – | Δ | – | – | – |
| C[N+](C)(C)C.C[N+](C)(C)C.Cc1c(N=Nc2cc(C(=O)[O-])ccc2C(=O)[O-])c(O)[nH]c(=O)c1C#N | ♯ | ο | – | – | ≥ 3% | ο | – | – | – |
| Cc1c(N=Nc2cc(C(=O)O)ccc2C(=O)O)c(O)n(Cc2cc(S(=O)(=O)O)cc(S(=O)(=O)O)c2)c(=O)c1C#N [compound 149] | ◯ | ◯ | >10% | ⊚ | – | ◯ | – | – | – |
| Cc1c(C(=O)O)ccc(C(=O)O)c1N=Nc1c(C)c(C#N)c(=O)n(CCCS(=O)(=O)O)c1O [compound 137] | ⊚ | ◯ | >5% | ⊚ | – | Δ | – | – | – |
| Cc1c(N=Nc2cccc(C(=O)O)c2C(=O)O)c(O)n(Cc2ccc(C(=O)O)cc2)c(=O)c1C#N [compound 58] | ◯ | ◯ | >5% | ⊚ | – | Δ | – | – | – |
| Cc1c(C(=O)O)ccc(C(=O)O)c1N=Nc1c(C)c(C#N)c(=O)n(CC(O)CC(=O)O)c1O (stereo not shown) [compound 164] | ◯ | ◯ | >8% | ⊚ | – | ◯ | – | – | – |
| Cc1c(N=Nc2cc(S(=O)(=O)O)c(C(=O)O)cc2C(=O)O)c(O)[nH]c(=O)c1C#N [compound 7] | ⊚ | ◯ | >10% | ⊚ | – | Δ | – | – | – |
| Cc1c(N=Nc2c(C(=O)O)cccc2C(=O)O)c(O)[nH]c(=O)c1C#N [compound 16] | ⊚ | ◯ | >5% | ⊚ | – | Δ | – | – | – |
| Cc1c(N=Nc2cc(C(=O)[O-])ccc2C(=O)[O-])c(O)[nH]c(=O)c1C#N.[K+].[K+] [potassium salt of compound No. 11] | – | – | – | – | ≥ 3% | – | ♯ | ο | ο |
| Cc1c(N=Nc2cccc(C(=O)O)c2C(=O)O)c(O)n(CCCC(=O)O)c(=O)c1C#N [compound 48] | ◯ | ◯ | >5% | ⊚ | – | ◯ | – | – | – |
| Cc1c(N=Nc2cc(C(=O)O)ccc2C(=O)O)c(O)n(CC(=O)O)c(=O)c1C#N [compound 77] | ⊚ | ◯ | >5% | ⊚ | – | Δ | – | – | – |
| Cc1c(N=Nc2cc(C(=O)O)ccc2C(=O)O)c(O)n(-c2cc(S(=O)(=O)O)cc(S(=O)(=O)O)c2)c(=O)c1C#N [compound 142] | ◯ | ◯ | >8% | ⊚ | – | ◯ | – | – | – |
| Cc1c(N=Nc2cc(C(=O)O)ccc2C(=O)O)c(O)n(CCNc2nc(Cl)nc(NCCn3c(O)c(N=Nc4cc(C(=O)O)ccc4C(=O)O)c(C)c(C#N)c3=O)n2)c(=O)c1C#N [Compound No. 245] | ◯ | ◯ | – | ⊚ | – | ⊚ | – | – | – |
| Cc1c(N=Nc2cc(C(=O)O)ccc2C(=O)O)c(O)n(CCNc2nc(NCCn3c(O)c(N=Nc4cc(C(=O)O)ccc4C(=O)O)c(C)c(C#N)c3=O)nc(SCCC(=O)O)n2)c(=O)c1C#N [Compound 321] | ◯ | Δ | – | ⊚ | – | ⊚ | – | – | – |
| Cc1c(N=Nc2cc(C(=O)O)ccc2C(=O)O)c(O)n(CCNc2nc(NCCn3c(O)c(N=Nc4cc(C(=O)O)ccc4C(=O)O)c(C)c(C#N)c3=O)nc(NCCn3c(O)c(N=Nc4cc(C(=O)O)ccc4C(=O)O)c(C)c(C#N)c3=O)n2)c(=O)c1C#N [Compound 262] | ◯ | Δ | – | ⊚ | – | ⊚ | – | – | – |
| Cc1c(N=Nc2cccc(C(=O)O)c2C(=O)O)c(O)n(CCNC(=O)c2cc(C(=O)O)c(C(=O)NCCn3c(O)c(N=Nc4cccc(C(=O)O)c4C(=O)O)c(C)c(C#N)c3=O)cc2C(=O)O)c(=O)c1C#N [Compound 293] | ⊚⊚ | ◯ | – | ⊚ | – | ⊚ | – | – | – |
| CCOC(=O)Cc1c(N=Nc2cc(C(=O)O)ccc2C(=O)O)c(O)n(CCNc2nc(Cl)nc(NCCn3c(O)c(N=Nc4cc(C(=O)O)ccc4C(=O)O)c(CC(=O)OCC)c(C#N)c3=O)n2)c(=O)c1C#N [Compound 255] | ◯ | ◯ | – | ⊚ | – | ⊚ | – | – | – |
| Cc1c(N=Nc2cc(C(=O)O)ccc2C(=O)O)c(O)n(CCNC(=O)c2cc(C(=O)O)c(C(=O)NCCn3c(O)c(N=Nc4cc(C(=O)O)ccc4C(=O)O)c(C)c(C#N)c3=O)cc2C(=O)O)c(=O)c1C#N [Compound No. 279] | ⊚ | ◯ | – | ⊚ | – | ⊚ | – | – | – |
| Cc1c(N=Nc2cccc(C(=O)O)c2C(=O)O)c(O)n(C(C(=O)O)C(=O)O)c(=O)c1C#N [compound 52] | ⊚ and Δ | ◯ and Δ | – | ⊚ | – | Δ and ◯ | – | – | – |
